Laboratory results: patent US9746463B2 (THE TRUSTEES OF COLUMBIA UNIVERSITY IN THE CITY OF NEW YORK, priority 2006, dated 2017)
Ends that are not written are not given here.

Legend:
[1] = test system: Adiponectin expression in WT adipocytes; experiment: Adiponectin expression in adipocytes treated with osteocalcin (real time PCR); format: cell-based, mouse; conditions: wild type adipocytes treated for 4 hours, real time PCR, vs vehicle
Experimental: (§1) FIG. 7A-O. Esp−/− Mice Are a Model of Increased Osteocalcin Bioactivity. (FIGS. 7A-G) Comparison between 6-week-old WT, Esp−/, Ocn+/−, and Esp−/−; Ocn+/− mice. (FIG. 7A) Blood glucose levels. (FIG. 7B) Serum insulin levels. (FIG. 7C) Serum adiponectin levels. (FIG. 7D) GTT. (FIG. 7E) ITT. (FIG. 7F) GSIS test. (FIG. 7G) Quantification of the number of Ki67-immunoreactive cells in pancreatic islets. […] (FIG. 7K) Expression of Adiponectin in WT adipocytes cultured in presence of vehicle or of 1 ng/ml of commercially available carboxylated osteocalcin (Immunotopics) or bacterially produced uncarboxylated osteocalcin. (FIG. 7L) Expression of Insulin and Cyclin D1 in WT islets cultured in presence of 0.3 ng/ml of bacterially produced uncarboxylated osteocalcin or vehicle. (FIG. 7M) Metabolic parameters and total serum osteocalcin levels in control and obese patients. (FIG. 7N-O) Quantification of carboxylated osteocalcin (HA-bound osteocalcin) in control and obese patients. In (FIGS. 7A)-(C) and (FIGS. G)-(L): *p<0.05 versus WT (Student's t test); in (FIG. D)-(F), °p<0.05 versus WT and *p % 0.001 versus WT (ANOVA followed by post hoc analysis).
FIG. 15. […] Wt adipocytes were treated for 4 hours with recombinant full-length osteocalcin (1-46) or a truncated form (1-36) or vehicle. Adiponectin expression was then quantified by real time PCR.
Primary adipocytes were isolated from epididymal fat pads by collagenase digestion. Briefly, minced adipose tissue was digested by 1 mg/ml collagenase P in KRP Buffer (20 mM HEPES, 120 mM NaCl, 6 mM KCl, 1.2 mM MgSO4, 1 mM CaCl2, 0.6 mM Na2HPO4, 0.4 mM NaH2PO4, 2.5 mM D-glucose, 2% BSA, pH 7.4) for 1 h at 37° C. The isolated cells were washed twice with KRP Buffer before being cultured in αMEM/1% FBS at 37° C. in 5% CO2.
Gene expression analyses. All gene expression analyses were performed using real time PCR. DNAse I-treated total RNA was converted to cDNA with the SuperScript III kit (Invitrogen). Real-time PCR were performed using the Taq SYBR Green Supermix with ROX (Biorad) on an MX3000 instrument (Stratagene); beta-actin amplification was used as an internal reference for each sample. All primers were from SuperArray.
A fragment of uncarboxylated osteocalcin is biologically active. Experiments were performed to test whether truncated osteocalcin was as effective as full-length uncarboxylated osteocalcin in stimulating adiponectin secretion from mouse adipocytes in vitro. Wild type adipocytes were treated for 4 hours with recombinant full-length osteocalcin (1-46) or a truncated form (1-36) (having a deletion of the first ten amino acids from the C-terminal end) or vehicle. Adiponectin expression was then quantified by real time PCR. […]

[2] = Osteocalcin subcutaneous infusion in GTG-induced obesity; format: in vivo, mouse
Experimental: FIG. 14. […] Wt mice were injected with gold thioglucose (GTG) or vehicle to induce hyperphagia and obesity. Two weeks later they were implanted with subcutaneous osmotic pumps infusing […] of recombinant osteocalcin or PBS for 28 days before. Body weight gain was recorded thereafter at indicated days.
The effect of uncarboxylated osteocalcin on GTG-induced obesity was investigated (FIG. 14). Wild type mice were injected with gold thioglucose (GTG) to induce hyperphagia and obesity or vehicle. Two weeks later they were implanted with subcutaneous osmotic pumps infusing 1 ng/hr of recombinant uncarboxylated osteocalcin or PBS for 28 days. […] At 28 days, body weight was reduced by about 15% with uncarboxylated osteocalcin treatment.

[3] = Osteocalcin subcutaneous infusion in wt mice: glycemia; format: in vivo, mouse; conditions: wild type mice, 0.3, 1 and 3 ng/hour subcutaneously for 28 days, vs PBS
Experimental: FIG. 10. […] Indicated doses of recombinant osteocalcin or PBS were infused subcutaneously for 28 days in wt mice. Blood glucose was measured at indicated days.
An in vivo experiment was conducted in which the effect of undercarboxylated osteocalcin on glycemia was monitored. Wild type mice were infused with 3 different amounts of mouse recombinant undercarboxylated osteocalcin or placebo (PBS) subcutaneously for 28 days (0.3, 1 and 3 ng/hour).

[4] = test system: Insulin and Cyclin D1 expression in WT islets; experiment: Insulin and Cyclin D1 expression in islets cultured with uncarboxylated osteocalcin; format: cell-based, mouse; conditions: 0.3 ng/ml (FIG. 7L)
Experimental: as §1
Mouse islets and adipocytes isolation. Islets were isolated using a Histopaque gradient (1077, Sigma). […]

[5] = Osteocalcin subcutaneous infusion in wt mice: body weight and gonadal fat pad mass; format: in vivo, mouse
Experimental: (FIG. 13A) Indicated doses of recombinant osteocalcin or PBS were infused subcutaneously for 28 days in wt mice. Body weight was recorded at indicated days. (FIG. 13B) Gonadal fat pad mass was measured after 28 days.
In another in vivo experiment, the effect of uncarboxylated osteocalcin on body weight and fat pad mass was monitored (FIG. 13). Wild type mice were infused subcutaneously for 28 days with PBS or uncarboxylated osteocalcin at 0.3, 1 or 3 ng/hour. […] (FIG. 13) Gonadal fat pad mass, measured after 28 days, decreased by about %18 with 3 ng/hour uncarboxylated osteocalcin treatment.

## uncarboxylated osteocalcin: Recombinant mouse osteocalcin bacterially produced as GST fusion, cleaved with thrombin; completely undercarboxylated at all three sites (YLGASVPSPDPLEPTREQCELNPACDELSDQYGLKTAYKRIYGITI; not fully specified; ends and bridges not checked; UniProt P86546 50-95, looked up)
[1]
  increase of Adiponectin expression: ~1.5 fold
[2]; GTG-injected wild type mice, 1 ng/hr by osmotic pump for 28 days, from 7 days on, vs PBS
  body weight gain: significantly reduced
[2]; GTG-injected wild type mice, 1 ng/hr, at 28 days
  reduction of body weight: about 15%
[2]; wt mice, infusion for 28 days (figure legend)
  GTG-induced obesity: prevents GTG-induced obesity
[3]; listed as recombinant osteocalcin
  glycemia (blood glucose): decreases glycemia
[3]; listed as undercarboxylated osteocalcin
  glycemia (blood glucose): decreased glycemia
[4]
  expression of Cyclin D1, marker of beta-cell proliferation: induced
  insulin expression: induced insulin expression
[5]; 3 ng/hour, measured after 28 days
  decrease of gonadal fat pad mass: ~18%
[5]; indicated doses infused subcutaneously for 28 days (figure legend)
  fat mass: decreases fat mass
[5]; the other doses (0.3, 1 ng/hour), 28 days
  gonadal fat pad mass: did not significantly decrease fat pad mass
[5]; wild type mice, 0.3, 1 or 3 ng/hour subcutaneously for 28 days, highest dose most effective
  body weight: slightly reduced
